The source made the active and inactive calls. The rule behind the calls is not given here.

The test system of data set [1] is MCF7. Put plainly: Growth inhibition of Homo sapiens (human) MCF-7 cells at 10^-12 to 10^-6 M after 48 hr by MTT assay. The data set is classed as functional. (Tetrazolium dyes change colour on reduction, which living cells bring about.)
For data set [2], the system named is HT-29. As to the kind of experiment: Growth inhibition of Homo sapiens (human) HT-29 cells at 10^-12 to 10^-6 M after 48 hr by MTT assay. Further details: concentration or dose not given beside the values. The data set is classed as functional.
The next data set relates to MDA-MB-231. The data set is classed as functional, Homo sapiens.
In data set [3] the target is T1, Aromatase (Rattus norvegicus, UniProt P22443).
T1 sequence (P22443 whole entry): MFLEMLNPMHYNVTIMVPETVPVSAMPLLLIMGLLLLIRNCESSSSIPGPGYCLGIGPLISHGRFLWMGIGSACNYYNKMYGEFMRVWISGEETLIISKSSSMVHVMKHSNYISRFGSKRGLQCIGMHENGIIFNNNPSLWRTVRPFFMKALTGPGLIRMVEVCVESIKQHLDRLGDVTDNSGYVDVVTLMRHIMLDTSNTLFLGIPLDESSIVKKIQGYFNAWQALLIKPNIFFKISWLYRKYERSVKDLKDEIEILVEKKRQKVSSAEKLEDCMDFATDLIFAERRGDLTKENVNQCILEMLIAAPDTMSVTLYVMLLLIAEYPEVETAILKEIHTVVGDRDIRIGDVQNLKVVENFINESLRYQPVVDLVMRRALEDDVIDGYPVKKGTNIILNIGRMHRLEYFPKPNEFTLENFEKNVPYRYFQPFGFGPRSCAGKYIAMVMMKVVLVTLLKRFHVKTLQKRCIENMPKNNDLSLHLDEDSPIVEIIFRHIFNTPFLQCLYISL
Put plainly: Inhibition of aromatase in Rattus norvegicus (rat) PMSG-treated denucleated ovarian fraction using testosterone as substrate at 50 uM after 15 min by radioimmuno assay. To be noted: 0.25 h.

In data set [4] the target is T1, Aromatase. As to the kind of experiment: Inhibition of aromatase in Rattus norvegicus (rat) PMSG-treated denucleated ovarian fraction using testosterone as substrate at 10 uM after 15 min by radioimmuno assay. To be noted: 0.25 h.
Data set [5] has as its system Rattus norvegicus. As to the kind of experiment: Antiestrogenic activity in female Rattus norvegicus Wistar (rat) assessed as decrease in estradiol benzoate-induced uterine weight at 25 mg/kg, sc QD for 3 days relative to control. The data set is classed as functional. To be noted: 72 h, route subcutaneous.
The test system of data set [6] is Rattus norvegicus. As to the kind of experiment: Antiestrogenic activity in female Rattus norvegicus Wistar (rat) assessed as decrease in estradiol benzoate-induced uterine weight at 5 mg/kg, sc QD for 3 days relative to control. To be noted: 72 h, route subcutaneous. The data set is classed as functional.
The subject of data set [7] is Rattus norvegicus. Put plainly: Estrogenic activity in female Rattus norvegicus Wistar (rat) assessed as change in uterine weight at 25 mg/kg, sc QD for 3 days relative to control. To be noted: in vivo, 72 h.
Data set [8] concerns Rattus norvegicus. Put plainly: Estrogenic activity in female Rattus norvegicus Wistar (rat)assessed as change in uterine weight at 5 mg/kg, sc QD for 3 days relative to control. To be noted: in vivo, 72 h.
Data set [9] is described as follows: Growth inhibition of Homo sapiens (human) MRC5 cells at 10^-12 to 10^-6 M after 48 hr by MTT assay. The data set is classed as cell-based. To be noted: read-out: GI.
The next data set relates to MRC5. As to the kind of experiment: Cytotoxicity against Homo sapiens (human) MRC5 cells at 10^-12 to 10^-6 M after 48 hr by MTT assay. To be noted: mrc5, 48 h. The data set is classed as cell-based.
The test system of data set [10] is HT-29. As to the kind of experiment: Growth inhibition of Homo sapiens (human) HT-29 cells at 10^-12 to 10^-9 M after 48 hr by MTT assay. The data set is classed as functional, cell-based.
For data set [11], the system named is MCF7. Put plainly: Growth inhibition of Homo sapiens (human) MCF-7 cells at 10^-12 to 10^-9 M after 48 hr by MTT assay. The data set is classed as functional.
For data set [12], the system named is MCF7. As to the kind of experiment: Growth inhibition of Homo sapiens (human) MCF-7 cell growth at 10^-6 M after 48 hr by MTT assay. The data set is classed as functional, cell-based.
The test system of data set [13] is MCF7. Put plainly: Induction of Homo sapiens (human) MCF7 cell growth at 10^-6 M after 48 hr by MTT assay. To be noted: mcf7, 48 h, 1 µM.
The subject of data set [14] is MCF7. As to the kind of experiment: Growth inhibition of Homo sapiens (human) MCF-7 cells at 10^-12 to 10^-7 M after 48 hr by MTT assay. The data set is classed as functional.

Description for MDA-MB-231: Growth inhibition of Homo sapiens (human) MDA-MB-231 cells at 10^-12 to 10^-6 M after 48 hr by MTT assay

In general, inhibition in vivo refers to how much of the control response was suppressed. As for `C[C@]1(COC(=O)CCC(=O)O)CC[C@@H]2c3ccc(O)cc3CC[C@H]2[C@@H]1CC#N`, the “growth inhibition (GI)” value with MCF7 [1], with HT-29 [2] and in the data set with MDA-MB-231 was 30% in each case. In addition, at Aromatase [3], the inhibition at 50 µM is 0.1%. For the same compound, at Aromatase [4], the inhibition at 10 µM was -10.6%. The inhibition in vivo at 25 mg/kg in the data set with Rattus norvegicus [5] worked out at 11.9%. For the same compound, the inhibition in vivo at 5 mg/kg in the data set with Rattus norvegicus [6] amounted to 41.6%. The results for the Activity in the data set with Rattus norvegicus [7] and in the data set on Rattus norvegicus [8] were 6.42% and -6.78%, respectively.
Take `C[C@]1(CO)CC[C@@H]2c3ccc(O)cc3CC[C@H]2[C@@H]1CC#N`: in the data set with Rattus norvegicus [6], the inhibition in vivo at 5 mg/kg was 21.1%. The Activity in the data set on Rattus norvegicus [8] was -2.06%.
`C[C@]1(COC(=O)CCCC(=O)O)CC[C@@H]2c3ccc(O)cc3CC[C@H]2[C@@H]1CC#N`: the “growth inhibition (GI)” value in the data set on MCF7 [1], in the data set with HT-29 [2] and in the data set with MDA-MB-231 was 10% in each case. Moreover, the inhibition at 48 h in data set [9] was 10%. Also, the inhibition at 50 µM against Aromatase [3] amounted to 67.3%. On Aromatase [4], the inhibition at 10 µM was 16.6%. The inhibition in vivo at 5 mg/kg in the data set on Rattus norvegicus [6] was determined as 13.8%. The Activity in the data set with Rattus norvegicus [8] was -9.63%.
In the case of `C[C@]1(COC(=O)CCCC(=O)O)CC[C@@H]2c3ccc(OCc4ccccc4)cc3CC[C@H]2[C@@H]1CC#N`, the Activity entry was “Non-toxic” in the data set with MRC5 and -3.92% in the data set with Rattus norvegicus [8]. In the data set on HT-29 [10], the “growth inhibition (GI)” value is “Active”. Also, the “growth inhibition (GI)” value in the data set with MCF7 [11] came to 20%. The inhibition at 50 µM against Aromatase [3] is 88.2%. The inhibition at 10 µM against Aromatase [4] came out at 17.9%. In the data set on Rattus norvegicus [6], the inhibition in vivo at 5 mg/kg came to 8.5%.
As to `C[C@]1(COC(=O)CCC(=O)O)CC[C@@H]2c3ccc(OCc4ccccc4)cc3CC[C@H]2[C@@H]1CC#N`, the “growth inhibition (GI)” value in the data set on MCF7 [1], in the data set on HT-29 [2] and in the data set with MDA-MB-231 was 40% in each case. The inhibition at 48 h in data set [9] was determined as 40%. The inhibition at 50 µM against Aromatase [3] was found to be 21.2%. For the same compound, the inhibition at 10 µM on Aromatase [4] worked out at 7.02%. The inhibition in vivo at 5 mg/kg in the data set with Rattus norvegicus [6] was determined as 2.82%. Besides, the Activity with Rattus norvegicus [8] is on record as -2.28%.
With `C[C@]1(CO)CC[C@@H]2c3ccc(OCc4ccccc4)cc3CC[C@H]2[C@@H]1CC#N`, in the data set on Rattus norvegicus [6], the inhibition in vivo at 5 mg/kg was 31.5%. In addition, in the data set with Rattus norvegicus [8], the Activity amounted to 0.71%.
Regarding `C[C@]12CC[C@@H]3c4ccc(O)cc4CC[C@H]3[C@@H]1CC[C@@H]2O` [ESTRADIOL], the “growth inhibition (GI)” value with MCF7 [12] was “inactive”. The Activity entry with MCF7 [13] is listed as “Non-toxic”. Moreover, the “growth inhibition (GI)” value with MCF7 [14] was found to be 10%; with HT-29 [2], 20%.
With `CC/C(=C(\c1ccccc1)c1ccc(OCCN(C)C)cc1)c1ccccc1.O=C(O)CC(O)(CC(=O)O)C(=O)O` [TAMOXIFEN CITRATE], the “growth inhibition (GI)” value in the data set on MCF7 [12] was “inactive”. In addition, the Activity result was “Non-toxic” with MCF7 [13], 39.36% with Rattus norvegicus [7] and 39.78% with Rattus norvegicus [8]. Besides, the “growth inhibition (GI)” value with MCF7 [14] and in the data set on HT-29 [2] was “Active” each time. Moreover, the “growth inhibition (GI)” value in the data set on MDA-MB-231 is reported as 30%. Moreover, the inhibition in vivo at 25 mg/kg in the data set on Rattus norvegicus [5] was 62.8%.

The values are drawn from ChEMBL document CHEMBL3044577, “Evaluation of biological activity of new hemiesters of 17-hydroxy-16,17-secoestra-1,3,5(10)-triene-16-nitrile” (Med Chem Res, 2011).
